Measurements taken from patent US20210290648A1, “Potentiation of B-Lactam Antibiotics and B-Lactam/B-Lactamase Inhibitor Combinations Against Multidrug and Extensively Drug-Resistant Pseudomonas Aeruginosa Using Non-Ribosomal Tobramycin-Cyclam Conjugates” (University of Manitoba, priority 2018, published 2021).
Values after ≈ are worked out from the molar mass of the structure shown.

Tests used:
[1] = tested on: human liver carcinoma (HepG2) cells; test: Cytotoxicity, PrestoBlue cell viability assay; format: cell-based; conditions: at about 12 μM (6.5 μg/mL), positive control
Protocol: Cytotoxicity Assay. Human embryonic kidney cells (HEK293) and HepG2 cells were grown in Dulbecco's modified eagle's medium supplemented with 10% fetal bovine serum in a humidified […] incubator at 37° C. Equal number of cells (100 μl of media containing ˜8000 cells) were dispersed into 96-well plates and wells with medium but no cells were used as blanks. After incubating for 24 h, […] varying concentrations of test compounds (at twice the desired concentrations) were added to each well, including the blanks. The treated cells were then incubated further for 48 h, after which PrestoBlue reagent was added to each well. The plates were then incubated for an additional hour on a nutator mixer in a 5% CO2 incubator. The fluorescence was read at […] on a SpectraMax M2 plate reader (Molecular Devices, USA). Cell viability were interpreted as previously described (55, 77). The values of blank were subtracted from each value, and the viability values of the treated samples relative to the controls with vehicle were calculated. The values for the plots are the means±standard deviation.

[2] = tested on: human embryo kidney (HEK293) cells; test: Cytotoxicity, PrestoBlue cell viability assay; format: cell-based; conditions: at about 12 μM (6.5 μg/mL), positive control
Protocol: Cytotoxicity Assay. Human embryonic kidney cells (HEK293) and HepG2 cells were grown in Dulbecco's modified eagle's medium supplemented with 10% fetal bovine serum in a humidified 5% atmospheric incubator at 37° C. […] The fluorescence was read at […] on a SpectraMax M2 plate reader (Molecular Devices, USA). […] The values of blank were subtracted from each value, and the viability values of the treated samples relative to the controls with vehicle were calculated. The values for the plots are the means±standard deviation.

[3] = tested on: A. baumannii CAN-ICU 63169; test: MIC, microbroth dilution; format: cell-based; conditions: Acinetobacter baumannii, CANICU63169, standalone, read-out: MIC
Protocol: (§1) Antimicrobial Susceptibility Assay. The in vitro antimicrobial activity of all compounds/antibiotics against a panel of bacteria was evaluated by microbroth dilution method in accordance with the Clinical and Laboratory Standards Institute (CLSI) guidelines. Overnight grown bacterial cultures were diluted in saline to achieve a 0.5 McFarland turbidity, followed by 1:50 dilution in Mueller-Hinton broth (MHB) for inoculation to a final concentration of approximately 5×10^5CFU/mL. The antimicrobial agents were 2-fold serially diluted in MHB in a 96-well plate and incubated at 37° C. with equal volumes of inoculum for 18 h. The lowest concentration that prevented the visible growth of bacteria was defined as the MIC for each antimicrobial agent. The broth with or without bacterial cells was used as positive or negative control, respectively.

E. coli ATCC 25922 = test: MIC, microbroth dilution; format: cell-based; conditions: Escherichia coli, ATCC25922, standalone, read-out: MIC
Protocol: as §1

[4] = tested on: E. coli CAN-ICU 61714 (GEN-R); test: MIC, microbroth dilution; format: cell-based; conditions: Escherichia coli, standalone, read-out: MIC
Protocol: as §1

[5] = tested on: E. coli CAN-ICU 63074 (AMK 32); test: MIC, microbroth dilution; format: cell-based; conditions: Escherichia coli, standalone, read-out: MIC
Protocol: as §1

[6] = tested on: E. coli CANWARD-2011 97615 (GEN-R, TOB-R, CIP-R) aac(3′)iia; test: MIC, microbroth dilution; format: cell-based; conditions: Escherichia coli
Protocol: as §1

E. faecalis ATCC 29212 = test: MIC, microbroth dilution; format: cell-based; conditions: Enterococcus faecalis, ATCC29212, standalone, read-out: MIC
Protocol: as §1

E. faecium ATCC 27270 = test: MIC, microbroth dilution; format: cell-based; conditions: Enterococcus faecium, ATCC27270, standalone, read-out: MIC
Protocol: as §1

MRSA ATCC 33592 = test: MIC, microbroth dilution; format: cell-based; conditions: Staphylococcus aureus, standalone, read-out: MIC
Protocol: as §1

[7] = tested on: MRSE CAN-ICU 61589 (CAZ >32); test: MIC, microbroth dilution; format: cell-based; conditions: Staphylococcus epidermidis, standalone, read-out: MIC
Protocol: as §1

MSSE CANWARD-2008 81388 = test: MIC, microbroth dilution; format: cell-based; conditions: standalone, read-out: MIC
Protocol: as §1

S. aureus ATCC 29213 = test: MIC, microbroth dilution; format: cell-based; conditions: Staphylococcus aureus, ATCC29213, standalone, read-out: MIC
Protocol: as §1

[8] = tested on: S. maltophilia CAN-ICU 62584; test: MIC, microbroth dilution; format: cell-based; conditions: Stenotrophomonas maltophilia, CANICU62584, standalone, read-out: MIC
Protocol: as §1

S. pneumoniae ATCC 49619 = test: MIC, microbroth dilution; format: cell-based; conditions: Streptococcus pneumoniae, ATCC49619, standalone, read-out: MIC
Protocol: as §1

P. aeruginosa ATCC 27853 = test: MIC, microbroth dilution; format: cell-based, Pseudomonas aeruginosa; conditions: Pseudomonas aeruginosa, ATCC27853, standalone, read-out: MIC
Protocol: as §1

[9] = tested on: P. aeruginosa CAN-ICU 62308 (GEN-R); test: MIC, microbroth dilution; format: cell-based, Pseudomonas aeruginosa; conditions: Pseudomonas aeruginosa, standalone, read-out: MIC
Protocol: as §1

[10] = tested on: P. aeruginosa CANWARD-2011 96846 (GEN-R, TOB-R); test: MIC, microbroth dilution; format: cell-based, Pseudomonas aeruginosa; conditions: Pseudomonas aeruginosa, standalone, read-out: MIC
Protocol: as §1

K. pneumoniae ATCC 13883 = test: MIC, microbroth dilution; format: cell-based, Klebsiella pneumoniae; conditions: Klebsiella pneumoniae, ATCC13883, standalone, read-out: MIC
Protocol: as §1

WT P. aeruginosa PAO1 = test: Checkerboard combination study / MIC; format: cell-based, Pseudomonas aeruginosa; conditions: for FICI in the presence of ≤10 μM of 1: antibiotic + compound 1; for FICI in the presence of ≤10 μM of 1 / MIC of Antibiotics in the presence of ≤10 μM of 1 / FICI in the presence of ≤10 μM of 2 / MIC of Antibiotics in the presence of ≤10 μM of 2 / FICI in the presence of ≤10 μM of 3 / MIC of Antibiotics in the presence of ≤10 μM of 3 / FICI with compounds 1-3: WT PAO1; for MIC of Antibiotics in the presence of ≤10 μM of 1: antibiotic + compound 1 ≤10 μM; for FICI in the presence of ≤10 μM of 2: antibiotic + compound 2; for MIC of Antibiotics in the presence of ≤10 μM of 2: antibiotic + compound 2 ≤10 μM; for FICI in the presence of ≤10 μM of 3: antibiotic + compound 3; for MIC of Antibiotics in the presence of ≤10 μM of 3: antibiotic + compound 3 ≤10 μM; for FICI with compounds 1-3: antibiotic + compounds 1-3 at ≤10 μM (≤16 μg/mL)
[11] = tested on: MDR/XDR P. aeruginosa clinical isolates; test: MIC and checkerboard, panel of clinical isolates; format: cell-based, Pseudomonas aeruginosa
[12] = tested on: panel of Gram-positive and Gram-negative bacteria; test: MIC, panel of Gram-positive and Gram-negative bacteria; format: cell-based; conditions: standalone; susceptible strains of the panel; read-out: MIC values against susceptible strains
Protocol: as §1

PA 91433 = test: Checkerboard combination study / MIC; format: cell-based, Pseudomonas aeruginosa; conditions: PA91433
PA 101243 = test: Checkerboard combination study / MIC; format: cell-based, Pseudomonas aeruginosa; conditions: PA101243
[13] = tested on: Galleria mellonella larvae; test: Galleria mellonella tolerability study; conditions: 100 mg/kg; positive control
Protocol: In vitro and in vivo discordances have been observed in antimicrobial chemotherapy, thus, therapeutic efficacy may not necessarily be reliably extrapolated based on in vitro data alone. […] Colistin (100 mg/kg), an antibiotic well known for its toxicity towards eukaryotes, served as a positive control for this experiment while PBS served as negative control. […] Survivability was scored for a total of 4 days.
In vivo larvae-infection model. In vivo synergistic effects were determined using Galleria mellonella infection model, as previously described (20). Briefly, worms were purchased from The Worm Lady® Live Feeder (ON, Canada), stored in their natural habitat at 16° C., and used within 10 days of delivery. The worms (average weight of 250 mg) were used for tolerability and efficacy studies. Tolerability study was performed by injecting 10 μL of antimicrobial agents only at concentrations equivalent to 100 mg/kg or 200 mg/kg. The worms (ten in each group) were incubated at 37° C. and monitored for 96 h. […] Overnight grown culture of respective MDR P. aeruginosa isolate was standardized to 0.5 McFarland standard and diluted in PBS to a final concentration of […]. 10 μL of this solution (5 CFU) was injected into each worm and incubated for 3 h at 37° C. […] Worms treated with 10 μL PBS or high concentrations of test antibiotics served as negative and positive control, respectively. The worms were incubated at 37° C. in Petri dishes lined with filter paper and scored for survivability every 6 h for up to 48 h. This experiment was repeated to give a total of thirty worms (n=30) in each case. Survival data curves were plotted using Kaplan-Meier survival analysis.

Molecule: COc1cccc2c1C(=O)c1c(O)c3c(c(O)c1C2=O)C[C@@](O)(C(=O)CO)C[C@@H]3O[C@H]1C[C@H](N)[C@H](O)[C@H](C)O1 [Doxorubicin]
- cell viability [1]: less than 10%
- cytotoxicity of cells reduced to [2]: less than 10%

Molecule: NC[C@H]1O[C@H](O[C@H]2[C@H](O)[C@@H](O[C@H]3O[C@H](CO)[C@@H](O)[C@H](N)[C@H]3O)[C@H](N)C[C@@H]2N)[C@H](N)C[C@@H]1O [Tobramycin]
- MIC [3]: 32 µg/mL (≈ 68.4 µM)
- MIC (E. coli ATCC 25922): 0.5 µg/mL (≈ 1.07 µM)
- MIC [4]: 8 µg/mL (≈ 17.1 µM)
- MIC [5]: 8 µg/mL (≈ 17.1 µM)
- MIC [6]: 128 µg/mL (≈ 274 µM)
- MIC (E. faecalis ATCC 29212): 8 µg/mL (≈ 17.1 µM)
- MIC (E. faecium ATCC 27270): 16 µg/mL (≈ 34.2 µM)
- MIC (MRSA ATCC 33592): 0.5 µg/mL (≈ 1.07 µM)
- MIC [7]: 2 µg/mL (≈ 4.28 µM)
- MIC (MSSE CANWARD-2008 81388): ≤ 0.25 µg/mL
- MIC (S. aureus ATCC 29213): 0.5 µg/mL (≈ 1.07 µM)
- MIC [8]: > 512 µg/mL
- MIC (S. pneumoniae ATCC 49619): 2 µg/mL (≈ 4.28 µM)
- MIC (P. aeruginosa ATCC 27853): 1 µg/mL (≈ 2.14 µM)
- MIC [9]: 16 µg/mL (≈ 34.2 µM)
- MIC [10]: 256 µg/mL (≈ 548 µM)
- MIC (K. pneumoniae ATCC 13883): ≤ 0.25 µg/mL
- MIC (WT P. aeruginosa PAO1; Pseudomonas aeruginosa, PAO1, 18 h, antibiotic alone, WT PAO1 (Table 2), read-out: MIC alone): 1 µg/mL
- FICI in the presence of ≤10 μM of 1 (WT P. aeruginosa PAO1): 1.01
- MIC of Antibiotics in the presence of ≤10 μM of 1 (WT P. aeruginosa PAO1): 1 µg/mL
- FICI in the presence of ≤10 μM of 2 (WT P. aeruginosa PAO1): 1.00
- MIC of Antibiotics in the presence of ≤10 μM of 2 (WT P. aeruginosa PAO1): 1 µg/mL
- FICI in the presence of ≤10 μM of 3 (WT P. aeruginosa PAO1): 1.01
- MIC of Antibiotics in the presence of ≤10 μM of 3 (WT P. aeruginosa PAO1): 1 µg/mL
- FICI with compounds 1-3 (WT P. aeruginosa PAO1): 1
- FICI with aztreonam or meropenem (WT P. aeruginosa PAO1; tobramycin + aztreonam or meropenem, WT): 0.75-1.00
- FICI with aztreonam or meropenem ([11]; tobramycin-resistant MDR/XDR isolates): 0.56-0.75
- FICI with aztreonam or meropenem ([11]; tobramycin-susceptible MDR): 0.75
- MIC [12]: ≤ 2 µg/mL

Molecule: Colistin
- FICI in the presence of ≤10 μM of 1 (WT P. aeruginosa PAO1): 2.00
- MIC of Antibiotics in the presence of ≤10 μM of 1 (WT P. aeruginosa PAO1): 2 µg/mL
- FICI in the presence of ≤10 μM of 2 (WT P. aeruginosa PAO1): 2.00
- MIC of Antibiotics in the presence of ≤10 μM of 2 (WT P. aeruginosa PAO1): 2 µg/mL
- FICI in the presence of ≤10 μM of 3 (WT P. aeruginosa PAO1): 1.02
- MIC of Antibiotics in the presence of ≤10 μM of 3 (WT P. aeruginosa PAO1): 1 µg/mL
- FICI with compounds 1-3 (WT P. aeruginosa PAO1): 2
- MIC alone (WT P. aeruginosa PAO1; antibiotic alone, WT PAO1 (Table 2)): Colistin (1) μg/ml
- MIC of colistin (PA 91433): 4 µg/mL
- MIC of colistin (PA 101243): 1024 µg/mL
- survival of larvae [13]: 30%
